From patent US10065971B2 (priority 2014, dated 2018)
Counter-ions that a name gives are not always drawn.

Biological target: human σ1 receptor (Homo sapiens, UniProt Q99720)
Experiment: biochemical
Parameters: μ and σ1 dual binding: scale not given here
Conditions: combined class from Ki at human σ1 receptor (A1) and Ki at human μ-opioid receptor (A2); radioligand binding
Procedure: Biological Activity Pharmacological Study Human σ1 Receptor Radioligand Assay
The assay was carried out with 7 μg of membrane suspension, 5 nM of [^3H](+)-pentazocine in either absence or presence of either buffer or 10 μM Haloperidol for total and non-specific binding, respectively. Binding buffer contained Tris-HCl 50 mM at pH 8. Plates were incubated at 37° C. for 120 minutes. After the incubation period, the reaction mix was then transferred to MultiScreen HTS, FC plates (Millipore), filtered and plates were washed 3 times with ice-cold 10 mM Tris-HCL (pH7.4). Filters were dried and counted at approximately 40% efficiency in a MicroBeta scintillation counter (Perkin-Elmer) using EcoScint liquid scintillation cocktail

Chain of human σ1 receptor (Q99720 whole entry): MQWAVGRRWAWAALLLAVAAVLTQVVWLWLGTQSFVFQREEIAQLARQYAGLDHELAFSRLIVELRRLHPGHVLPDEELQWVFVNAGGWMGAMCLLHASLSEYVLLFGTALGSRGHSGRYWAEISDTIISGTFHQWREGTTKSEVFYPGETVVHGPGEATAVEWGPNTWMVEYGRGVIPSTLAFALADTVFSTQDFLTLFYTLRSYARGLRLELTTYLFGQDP

Row | SMILES | μ and σ1 dual binding
1 | C[C@@H]1CN(C(=O)c2ccccc2F)CC2(CCN(CCc3ncccc3F)CC2)O1 [Example 143, (R)-(2-fluorophenyl)(9-(2-(3-fluoropyridin-2-yl)ethyl)-2-methyl-1-oxa-4,9-diazaspiro[5.5]undecan-4-yl)methanone] | ++
2 | CC1CN(C(=O)c2ccccc2)CC2(CCN(CCc3ncccc3C(F)(F)F)CC2)O1.Cl (stereo not shown) [Example 41, (2-methyl-9-(2-(3-(trifluoromethyl)pyridin-2-yl)ethyl)-1-oxa-4,9-diazaspiro[5.5]undecan-4-yl)(phenyl)methanone hydrochloride] | ++
3 | CS(=O)(=O)Nc1cccc(CCN2CCC3(CC2)CN(C(=O)c2ccccc2)CCO3)c1 [Example 114, N-(3-(2-(4-benzoyl-1-oxa-4,9-diazaspiro[5.5]undecan-9-yl)ethyl)phenyl)methanesulfonamide] | ++
4 | C[C@@H]1CN(C(=O)c2c(F)cccc2F)CC2(CCN(CCc3ncccc3F)CC2)O1 [Example 145, (R)-(2,6-difluorophenyl)(9-(2-(3-fluoropyridin-2-yl)ethyl)-2-methyl-1-oxa-4,9-diazaspiro[5.5]undecan-4-yl)methanone] | ++
5 | CC(=O)Nc1cccc(CCN2CCC3(CC2)CN(C(=O)c2ccccc2)CCO3)c1 [Example 111, N-(3-(2-(4-benzoyl-1-oxa-4,9-diazaspiro[5.5]undecan-9-yl)ethyl)phenyl)acetamide] | ++
6 | Cl.O=C(Cc1cccnc1)N1CCOC2(CCN(CCc3ccccc3)CC2)C1 [Example 15, 1-(9-phenethyl-1-oxa-4,9-diazaspiro[5.5]undecan-4-yl)-2-(pyridin-3-yl)ethanone hydrochloride] | ++
7 | CC1CN(C(=O)c2ccccc2)CC2(CCN(CCc3cccc(NC(N)=O)c3)CC2)O1.Cl (stereo not shown) [Example 109, 1-(3-(2-(4-benzoyl-2-methyl-1-oxa-4,9-diazaspiro[5.5]undecan-9-yl)ethyl)phenyl)urea hydrochloride] | ++
8 | Cl.O=C(c1ncccc1F)N1CCOC2(CCN(CCc3ccccc3)CC2)C1 [Example 25, (3-fluoropyridin-2-yl)(9-phenethyl-1-oxa-4,9-diazaspiro[5.5]undecan-4-yl)methanone hydrochloride] | ++
9 | CC1CN(C(=O)c2cncc(C(F)(F)F)c2)CC2(CCN(CCc3ccccc3)CC2)O1.Cl (stereo not shown) [Example 36, (2-methyl-9-phenethyl-1-oxa-4,9-diazaspiro[5.5]undecan-4-yl)(5-(trifluoromethyl)pyridin-3-yl)methanone hydrochloride] | ++
10 | CC1CN(C(=O)c2ccc(Cl)cn2)CC2(CCN(CCc3csc(N)n3)CC2)O1.Cl (stereo not shown) [Example 102, (9-(2-(2-aminothiazol-4-yl)ethyl)-2-methyl-1-oxa-4,9-diazaspiro[5.5]undecan-4-yl)(5-chloropyridin-2-yl)methanone hydrochloride] | ++
11 | Cl.O=C(c1nccs1)N1CCOC2(CCN(CCc3ccccc3)CC2)C1 [Example 13, (9-phenethyl-1-oxa-4,9-diazaspiro[5.5]undecan-4-yl)(thiazol-2-yl)methanone hydrochloride] | ++
12 | CN(C)C(=O)N1CCOC2(CCN(CCc3ccccc3)CC2)C1 [Example 117, N,N-dimethyl-9-phenethyl-1-oxa-4,9-diazaspiro[5.5]undecane-4-carboxamide] | ++
13 | Cl.O=C(c1cccnc1)N1CCOC2(CCN(CCc3ccccc3)CC2)C1 [Example 5, (9-phenethyl-1-oxa-4,9-diazaspiro[5.5]undecan-4-yl)(pyridin-3-yl)methanone hydrochloride] | ++
14 | O=C(c1cscn1)N1CCOC2(CCN(CCc3ccccc3)CC2)C1 [Example 12, (9-phenethyl-1-oxa-4,9-diazaspiro[5.5]undecan-4-yl)(thiazol-4-yl)methanone] | ++
15 | Cl.O=C(c1ccccc1)N1CCOC2(CCN(CCc3ccccn3)CC2)C1 [Example 63, phenyl(9-(2-(pyridin-2-yl)ethyl)-1-oxa-4,9-diazaspiro[5.5]undecan-4-yl)methanone hydrochloride] | ++
16 | CCC(=O)N1CC(C)OC2(CCN(CCc3ccccc3F)CC2)C1.Cl (stereo not shown) [Example 91, 1-(9-(2-fluorophenethyl)-2-methyl-1-oxa-4,9-diazaspiro[5.5]undecan-4-yl)propan-1-one hydrochloride] | ++
17 | CC1CN(C(=O)c2ccccc2)CC2(CCN(CCc3csc(N)n3)CC2)O1.Cl (stereo not shown) [Example 103, (9-(2-(2-aminothiazol-4-yl)ethyl)-2-methyl-1-oxa-4,9-diazaspiro[5.5]undecan-4-yl)(phenyl)methanone] | ++
18 | Cl.O=C(CC1CCOCC1)N1CCOC2(CCN(CCc3ccccc3)CC2)C1 [Example 16, 1-(9-phenethyl-1-oxa-4,9-diazaspiro[5.5]undecan-4-yl)-2-(tetrahydro-2H-pyran-4-yl)ethanone hydrochloride] | ++
19 | Cl.O=C(c1cncc(F)c1)N1CCOC2(CCN(CCc3ccccc3)CC2)C1 [Example 26, (5-fluoropyridin-3-yl)(9-phenethyl-1-oxa-4,9-diazaspiro[5.5]undecan-4-yl)methanone hydrochloride] | ++
20 | C[C@H]1CN(C(=O)c2ccccc2F)CC2(CCN(CCc3ncccc3F)CC2)O1 [Example 144, (S)-(2-fluorophenyl)(9-(2-(3-fluoropyridin-2-yl)ethyl)-2-methyl-1-oxa-4,9-diazaspiro[5.5]undecan-4-yl)methanone] | ++
21 | CC1CN(C(=O)c2ccccn2)CC2(CCN(CCc3cccc(OC(F)(F)F)c3)CC2)O1 (stereo not shown) [Example 80, (2-methyl-9-(3-(trifluoromethoxy)phenethyl)-1-oxa-4,9-diazaspiro[5.5]undecan-4-yl)(pyridin-2-yl)methanone dihydrochloride] | ++
22 | N#Cc1ccccc1C(=O)N1CC2(CCN(CCc3ncccc3F)CC2)OC2(CC2)C1 [Example 135, 2-(8-(2-(3-fluoropyridin-2-yl)ethyl)-4-oxa-8,12-diazadispiro[2.1.5.3]tridecane-12-carbonyl)benzonitrile] | ++

Same assay, conditions: combined class from Ki at human σ1 receptor (A1) and Ki at human μ-opioid receptor (A2); radioligand binding; read-out: μ and σ1 dual binding

Row | SMILES | Ki [µM]
23 | O=C(c1ccccc1)N1CCOC2(CCN(CCc3cccc([N+](=O)[O-])c3)CC2)C1 [Example 97, (9-(3-nitrophenethyl)-1-oxa-4,9-diazaspiro[5.5]undecan-4-yl)(phenyl)methanone] | > 0.5
24 | CC1CN(C(=O)c2ccccc2)CC2(CCN(CCc3ccc(S(N)(=O)=O)cc3)CC2)O1 (stereo not shown) [Example 75, 4-(2-(4-benzoyl-2-methyl-1-oxa-4,9-diazaspiro[5.5]undecan-9-yl)ethyl)benzene-sulfonamide] | > 0.5
25 | CC1CN(C(=O)c2cccc(F)c2F)CC2(CCN(CCc3ncccc3F)CC2)O1 (stereo not shown) [Example 147, (2,3-difluorophenyl)(9-(2-(3-fluoropyridin-2-yl)ethyl)-2-methyl-1-oxa-4,9-diazaspiro[5.5]undecan-4-yl)methanone] | > 0.5
26 | CC(C)OCCN1CCC2(CC1)CN(C(=O)c1ccccc1)CC(C)O2 (stereo not shown) [Example 88, (9-(2-isopropoxyethyl)-2-methyl-1-oxa-4,9-diazaspiro[5.5]undecan-4-yl)(phenyl)methanone hydrochloride] | > 0.5
27 | CC1CN(C(=O)c2ccccc2F)CC2(CCN(CCc3ncccc3F)CC2)O1 (stereo not shown) [Example 59, (2-fluorophenyl)(9-(2-(3-fluoropyridin-2-yl)ethyl)-2-methyl-1-oxa-4,9-diazaspiro[5.5]undecan-4-yl)methanone dihydrochloride] | > 0.5
28 | CC1CN(C(=O)c2ccccc2)CC2(CCN(CCc3csc(NC(=O)OC(C)(C)C)n3)CC2)O1 (stereo not shown) [Example 79, tert-butyl (4-(2-(4-benzoyl-2-methyl-1-oxa-4,9-diazaspiro[5.5]undecan-9-yl)ethyl)thiazol-2-yl)carbamate] | > 0.5
29 | COC(=O)CCN1CCC2(CC1)CN(C(=O)c1c(F)cccc1F)CC1(CC1)O2 [Example 140, methyl 3-(12-(2,6-difluorobenzoyl)-4-oxa-8,12-diazadispiro[2.1.5.3]tridecan-8-yl)propanoate] | > 0.5
30 | CC1CN(C(=O)c2ccc(Cl)cn2)CC2(CCN(CCc3csc(NC(=O)OC(C)(C)C)n3)CC2)O1 (stereo not shown) [Example 78, tert-butyl (4-(2-(4-(5-chloropicolinoyl)-2-methyl-1-oxa-4,9-diazaspiro[5.5]undecan-9-yl)ethyl)thiazol-2-yl)carbamate] | > 0.5
31 | O=C(c1ccccc1)N1CCOC2(CCN(CCc3cccnc3)CC2)C1 [Example 71, phenyl(9-(2-(pyridin-3-yl)ethyl)-1-oxa-4,9-diazaspiro[5.5]undecan-4-yl)methanone dihydrochloride] | > 0.5
32 | CC1CN(C(=O)c2cccc(F)c2)CC2(CCN(CCc3ncccc3F)CC2)O1 (stereo not shown) [Example 151, (3-fluorophenyl)(9-(2-(3-fluoropyridin-2-yl)ethyl)-2-methyl-1-oxa-4,9-diazaspiro[5.5]undecan-4-yl)methanone] | > 0.5
33 | CC(C)CCN1CCC2(CC1)CN(C(=O)c1ccccc1)CC(C)O2 (stereo not shown) [Example 86, (9-isopentyl-2-methyl-1-oxa-4,9-diazaspiro[5.5]undecan-4-yl)(phenyl)methanone hydrochloride] | > 0.5
34 | Nc1cccc(CCN2CCC3(CC2)CN(C(=O)c2ccccc2)CCO3)c1 [Example 104, (9-(3-aminophenethyl)-1-oxa-4,9-diazaspiro[5.5]undecan-4-yl)(phenyl)methanone] | > 0.5
